Experimental findings from US11299467B2 (Antabio SAS, priority 2017, dated 2022) are described below.

≈ marks a conversion by molar mass, not a printed value. Where two headings read alike, the source gives them in different places.

In one assay the test system is K. pneumoniae NTBC104. The assay can be described thus: In vivo efficacy, mouse thigh infection with K. pneumoniae NTBC104. As to conditions: meropenem at 30 mg/kg alone, 9 hours post infection. As for the experimental part: (§1) Mice were infected in the thigh with K. pneumoniae NTBC104. […] The MIC of meropenem in the presence of 8 ug/mL of the compound of Example 2 is 4 ug/mL.
At the end of the experiment (9 hours post infection) the animals were sacrificed and the numbers of colony forming units (CFUs) were measured in order to quantify bacterial load (extent of the infection).

Assay [1] concerns NTBC093 (E. cloacae strain expressing KPC-2 and TEM-1). The assay can be described thus: Meropenem MIC, broth micro-dilution, NTBC093. The conditions noted are these: Enterobacter cloacae, read-out: MIC mero. The assay is classed as cell-based. The protocol:
(§2) Experiments were carried out using the ‘broth micro-dilution method’ according to the protocols M07-A8 established by the Clinical Laboratory Standards Institute (CLSI). Serial dilutions of meropenem (mero) were prepared in 96-well plates in cation-adjusted Mueller-Hinton broth (CAMHB); the concentration range was defined from 0.03 mg/L to 512 mg/L. The compounds (the compound of Example 2, above, and/or WCK4234) were added at the concentration indicated in the table below. A bacterial inoculum of each strain (clinical isolates) was adjusted to a 0.5 McFarland turbidity standard in physiologic serum (0.9% NaCl), then diluted 1:100 in CAMHB and added to each well to give a final bacterial cell number of 5×10^5 CFU/well. After incubation for 18-20 hours in a heating chamber at 37° C., the growth inhibition was evaluated by the absence of any bacterial development.
NTBC091-1 (E. coli strain expressing KPC-2 and TEM-1); NTBC093 (E. cloacae strain expressing KPC-2 and TEM-1); NTBC096-1 (K. pneumonia strain expressing OXA-181 and SHV-11); NTBC099 (K. pneumonia strain expressing KPC-3, SHV-11 and TEM-1); and NTBC189 (K. pneumonia strain expressing TEM-OSBL, CTX-M-14 and OXA-48).
Background: In broth dilution the organism is exposed to a series of concentrations in liquid medium.

Assay [2] deals with NTBC104-1 (K. pneumoniae strain expressing NDM-1 and SHV-11). The assay can be described thus: Meropenem MIC, broth micro-dilution, NTBC104-1. The assay is classed as cell-based. As to conditions: Klebsiella pneumoniae. The protocol: as §2, with “The experiments were” for “Experiments were”, “of the β-lactam antibiotic (Meropenem)” for “of meropenem (mero)”, “compounds” for “compounds (the compound of Example 2, above, and/or WCK4234)”, “at a constant” for “at the”, “concentration of 8 μg/mL.” for “concentration indicated in the table below.”
Compounds of the invention were tested at a constant concentration of 8 μg/mL. The clinical strains used in these potentiation experiments were NTBC020 (E. coli strain expressing NDM-1, TEM-1 and CTX-M-15); NTBC035-2 (K. pneumoniae strain expressing NDM-1, CMY-4 and SHV-11); NTBC104-1 (K. pneumoniae strain expressing NDM-1 and SHV-11); NTBC123 (K. pneumoniae strain expressing NDM-1); NTBC018 (C. freundii strain expressing VIM-2); NTBC024 (K. pneumoniae strain expressing VIM-19, TEM-1 and CTX-M-3); NTBC042 (E. coli strain expressing VIM-1, TEM-1, CTX-M-15, SHV-12); NTBC055 (E. Coli strain expressing VIM-1); NTBC062 (K. pneumoniae strain expressing IMP-1 and TEM-1) and NTBC039 (K. oxytoca strain expressing IMP-28).
as §1
(§3) Experiments were carried out using the ‘broth micro-dilution method’ according to the protocols M07-A8 established by the Clinical Laboratory Standards Institute (CLSI). […] After incubation for 18-20 hours in a heating chamber at 37° C., the growth inhibition was evaluated by the absence of any bacterial development. […]

The test system of assay [3] is panel of clinical Enterobacteriacae strains expressing NDM enzymes (196 isolates). Kind of assay: Extended MIC profiling vs MBL-expressing clinical strains (meropenem potentiation). The assay is classed as cell-based. As to conditions: 196 NDM-expressing clinical isolates. From the text: By contrast, the same concentration of meropenem alone is only capable of stopping the growth of <1% of the strains and within the parameters of the experiment the cessation of growth of 90% of all strains could not be achieved with meropenem alone.
To assess the coverage and potentiation of meropenem by compounds of the invention, the susceptibility of around 200 clinical isolates was examined. The criteria for selection into the panel was that the clinical strain was resistant to carbapenems, but only expressing NDM enzyme variants and not serine betalactamase enzymes with carbapenemase activity such as KPC or OXA.

Assay [4] deals with NTBC186 (K. pneumonia strain expressing ACT-TYPE, VIM-1 and OXA-48). The assay can be described thus: Meropenem MIC, broth micro-dilution, NTBC186. The conditions noted are these: Klebsiella pneumoniae, read-out: MIC mero. The assay is classed as cell-based. The protocol:
as §2
(§4) NTBC019 (K. pneumonia strain expressing NDM-1, CTX-M-15 and OXA-181); NTBC185 (K. pneumonia strain expressing SHV-OSBL, TEM-OSBL, NDM-1 and OXA-48); NTBC186 (K. pneumonia strain expressing ACT-TYPE, VIM-1 and OXA-48); NTBC187 (K. pneumonia strain expressing SHV-OSBL, NDM-1 and OXA-48); and NTBC188 (K. pneumonia strain expressing NDM-1 and KPC-2).

For assay [5], the system named is NTBC019 (K. pneumonia strain expressing NDM-1, CTX-M-15 and OXA-181). Kind of assay: Meropenem MIC, broth micro-dilution, NTBC019. The assay is classed as cell-based. As to conditions: Klebsiella pneumoniae. The protocol: as §2, §4
(§5) Experiments were conducted as described above. Compounds (the compounds of Examples 2 and 26) were tested at 8 μg/mL. […] MIC values were determined for […]

Assay [6] concerns NTBC188 (K. pneumonia strain expressing NDM-1 and KPC-2). The assay can be described thus: Meropenem MIC, broth micro-dilution, NTBC188. The assay is classed as cell-based. As to conditions: Klebsiella pneumoniae. As for the experimental part:
as §2, §4, §5

Assay [7] has as its system NTBC035-2 (K. pneumoniae strain expressing NDM-1, CMY-4 and SHV-11). The assay can be described thus: Meropenem MIC, broth micro-dilution, NTBC035-2. The assay is classed as cell-based. As to conditions: Klebsiella pneumoniae, read-out: MIC mero. As for the experimental part:
as §2, with “The experiments were” for “Experiments were”, “of the β-lactam antibiotic (Meropenem)” for “of meropenem (mero)”, “compounds” for “compounds (the compound of Example 2, above, and/or WCK4234)”, “at a constant” for “at the”, “concentration of 8 μg/mL.” for “concentration indicated in the table below.”
(§6) Compounds of the invention were tested at a constant concentration of 8 μg/mL. […]
as §3

The test system of assay [8] is NTBC020 (E. coli strain expressing NDM-1, TEM-1 and CTX-M-15). The assay can be described thus: Meropenem MIC, broth micro-dilution, NTBC020. As to conditions: Escherichia coli, read-out: MIC mero. The assay is classed as cell-based. The protocol:
as §2, with “The experiments were” for “Experiments were”, “of the β-lactam antibiotic (Meropenem)” for “of meropenem (mero)”, “compounds” for “compounds (the compound of Example 2, above, and/or WCK4234)”, “at a constant” for “at the”, “concentration of 8 μg/mL.” for “concentration indicated in the table below.”
as §6, §3

As usually defined, the MIC is the smallest concentration in the dilution series that meets the test's criterion for growth inhibition. As to `C[C@@H](O)[C@H]1C(=O)N2C(C(=O)O)=C(S[C@@H]3CN[C@H](C(=O)N(C)C)C3)[C@H](C)[C@H]12` [Meropenem], in the assay on K. pneumoniae NTBC104, the “bacterial load (CFUs)” value is listed as “reduced bacterial load slightly”. For the same compound, the MIC in assay [1] is 128 µg/mL (≈ 334 µM); in assay [2] (read-out: MIC mero), 64 µg/mL; in assay [2] (read-out: MIC of meropenem against K. pneumoniae NTBC104) it was 64 µg/mL; in [4], 16 µg/mL (≈ 41.7 µM); in assay [5] (read-out: MIC mero) it was 64 µg/mL (≈ 167 µM); in assay [5] (read-out: MIC, NTBC19), 8 to 512 µg/mL (≈ 20.9 to 1340 µM). Besides, the MIC in assay [6] (read-out: MIC mero) was 32 µg/mL (≈ 83.4 µM); in assay [6] (read-out: MIC, NTBC188), 8 to 512 µg/mL (≈ 20.9 to 1340 µM); in assay [7], 64 µg/mL; in assay [8], 128 µg/mL. The “strains whose growth is stopped by the same concentration (8 ug/mL) of meropenem alone” value in assay [3] is given as < 1%.
